Data taken from US20030109549A1 (published 2003).
Structures can show the parent of a compound that is named as a salt.

Compound | melting point [°C]
NCC(=O)Nc1nc2ccccc2n1C1CCN(C2(c3ccccc3)CCCCCCC2)CC1 (as salt: HCl) | 217 to 221
NC1CCN(c2nc3ccccc3n2C2CCN(C3(c4ccccc4)CCCCCC3)CC2)CC1 (as salt: HCl) | 225 to 228
CN(C)CCNc1nc2ccccc2n1C1CCN(C2(c3ccccc3)CCCCCC2)CC1 (as salt: HCl) | 188 to 192
OC1CCN(c2nc3ccccc3n2C2CCN(C3(c4ccccc4)CCCCCC3)CC2)CC1 (as salt: HCl) | 208 to 212
c1ccc(C2(N3CCC(n4c(NC5CCNCC5)nc5ccccc54)CC3)CCCCCC2)cc1 (as salt: HCl) | 231 to 235
c1ccc(C2(N3CCC(n4c(N5CCNCC5)nc5ccccc54)CC3)CCCCCC2)cc1 (as salt: HCl) | 159 to 163
c1ccc(CN2CCN(c3nc4ccccc4n3C3CCN(C4(c5ccccc5)CCCCCC4)CC3)CC2)cc1 (as salt: HCl) | 139 to 143
N=C(N)NCCNc1nc2ccccc2n1C1CCN(C2(c3ccccc3)CCCCCC2)CC1 (as salt: salt) | 215 to 218
c1ccc(C2(N3CCC(n4c(N5CCCC5)nc5ccccc54)CC3)CCCCCC2)cc1 (as salt: HCl) | 178 to 181
ON=C1CCN(c2nc3ccccc3n2C2CCN(C3(c4ccccc4)CCCCCC3)CC2)CC1 (as salt: fumaric acid salt) | 201 to 204
NCCOc1nc2ccccc2n1C1CCN(C2(c3ccccc3)CCCCCC2)CC1 (as salt: HCl) | 180 to 184
CCCCCNc1nc2ccccc2n1C1CCN(C2(c3ccccc3)CCCCCC2)CC1 (as salt: HCl) | 156 to 159
c1ccc(N2CCN(c3nc4ccccc4n3C3CCN(C4(c5ccccc5)CCCCCC4)CC3)CC2)cc1 (as salt: HCl) | 188 to 192
CNC(C)Nc1nc2ccccc2n1C1CCN(C2(c3ccccc3)CCCCCC2)CC1 (stereo not shown) (as salt: HCl) | 173 to 177
c1ccc(C2(N3CCC(n4c(N5CCOCC5)nc5ccccc54)CC3)CCCCCC2)cc1 (as salt: HCl) | 172 to 176
Clc1nc2ccccc2n1C1CCN(C2(c3ccccc3)CCCCCC2)CC1 (as salt: HCl) | 153 to 156
CSc1nc2ccccc2n1C1CCN(C2(c3ccccc3)CCCCCC2)CC1 (as salt: HCl) | 168 to 171
c1ccc(C2(N3CCC(n4c(OC5CCNCC5)nc5ccccc54)CC3)CCCCCC2)cc1 (as salt: HCl) | 114 to 118
CS(=O)(=O)c1nc2ccccc2n1C1CCN(C2(c3ccccc3)CCCCCC2)CC1 (as salt: HCl) | 155 to 158
NCCNc1nc2ccccc2n1C1CCN(C2(c3ccccc3)CCCCCC2)CC1 (as salt: HCl) | 228 to 232
O=C1CCN(c2nc3ccccc3n2C2CCN(C3(c4ccccc4)CCCCCC3)CC2)CC1 (as salt: HCl) | 168 to 172
c1ccc(C2(N3CCC(n4c(N5CCCCC5)nc5ccccc54)CC3)CCCCCC2)cc1 (as salt: HCl) | 177 to 180
